From patent publication US20230286946A1, “DIFLUOROMETHYL-PYRIDIN-2-YL TRIAZOLES” (Boehringer Ingelheim International GmbH, priority 2020, published 2023)

What follows are compounds tested against T1, human GABAA α5β3γ2s receptor (Homo sapiens, UniProt P18507+P31644) (assay: Assay A: in vitro inhibition of 3H-flumazenil binding, HEK cells expressing the human GABAA α5β3γ2s receptor). Conditions: compounds of the present invention; read-out: Assay A: GABAA α5 β3 γ2S Ki.
T1 sequence (P18507 1-475): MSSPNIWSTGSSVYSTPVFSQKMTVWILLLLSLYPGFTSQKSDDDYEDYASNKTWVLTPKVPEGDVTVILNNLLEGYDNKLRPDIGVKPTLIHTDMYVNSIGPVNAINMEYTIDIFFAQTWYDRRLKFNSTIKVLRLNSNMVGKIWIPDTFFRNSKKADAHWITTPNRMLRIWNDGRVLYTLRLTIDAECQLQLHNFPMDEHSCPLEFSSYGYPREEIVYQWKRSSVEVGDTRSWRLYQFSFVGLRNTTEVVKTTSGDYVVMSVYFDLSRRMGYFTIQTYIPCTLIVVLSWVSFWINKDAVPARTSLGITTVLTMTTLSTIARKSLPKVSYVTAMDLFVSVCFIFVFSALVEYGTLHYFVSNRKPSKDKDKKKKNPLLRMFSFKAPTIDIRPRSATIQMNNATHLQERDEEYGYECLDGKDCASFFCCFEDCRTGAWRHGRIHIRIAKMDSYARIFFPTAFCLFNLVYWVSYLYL
T1 sequence (P31644 1-462): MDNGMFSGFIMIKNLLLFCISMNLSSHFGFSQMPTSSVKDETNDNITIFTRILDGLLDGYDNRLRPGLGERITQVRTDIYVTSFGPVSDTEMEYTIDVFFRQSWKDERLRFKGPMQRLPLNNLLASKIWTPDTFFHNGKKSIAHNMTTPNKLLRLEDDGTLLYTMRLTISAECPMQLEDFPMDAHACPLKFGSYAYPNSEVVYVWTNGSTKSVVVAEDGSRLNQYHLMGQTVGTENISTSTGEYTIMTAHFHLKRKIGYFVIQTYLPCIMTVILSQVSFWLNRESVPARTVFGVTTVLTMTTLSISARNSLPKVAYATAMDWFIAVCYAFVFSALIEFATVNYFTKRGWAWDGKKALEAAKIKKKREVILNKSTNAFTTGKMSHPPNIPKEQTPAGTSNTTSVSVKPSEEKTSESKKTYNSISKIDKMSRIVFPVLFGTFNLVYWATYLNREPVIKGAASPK
Method: Cell Cultures and Membrane Preparation
HEK-293 cell lines with stable expression of recombinant human GABAA α5ß3 γ2s receptors (plasmid H46/E9/B10) are seeded in T175 polystyrene flasks or roller bottles (1700 cm^2, Fisher Scientific CCI-431191), and cultured (37° C., 5% CO2) in Dulbecco's Modified Eagle Medium (DMEM) with GlutaMAX™ supplemented with 10% fetal bovine serum and one or both of the following antibiotics: hygromycin B ([…]; γ2 subunit) or G418 (0.5 mg/ml; […]).
When the cultures reach confluency, the DMEM is removed and the cells are washed (10 ml for T175 flasks; 50 ml for roller bottles) once in Dulbecco's Phosphate Buffered Saline (DPBS). Following addition of DPBS to the cultures (10 ml for T175 flasks; 100 ml for roller bottles) for approximately 5 min cells are easily detached from the surface by shaking or tapping the flask gently. The cell suspension is transferred to Falcon tubes and centrifuged at 23,500×g for 10 min at 2° C. The pellet is washed once in 15 ml Tris-citrate buffer (50 mM, pH 7.1) using an Ultra-Turrax homogenizer and centrifuged at 2° C. for 10 min at 27,000×g. The washed pellet is re-suspended in 15 ml Tris-citrate buffer and frozen at −80° C. until the day of the binding experiment.
On the day of the experiment the cell membrane preparation is thawed and centrifuged at 2° C. for 10 min at 27,000×g. The pellet is re-suspended, using an Ultra-Turrax homogenizer in Tris-citrate buffer, to 15-50 µg protein per assay and then used for binding assays.
Non-specific binding is determined using clonazepam ([…]).
All dilutions of test compounds and incubation of assay are performed in glass vials/96-vial plates. […] Compounds are dissolved in 100% DMSO (10 mM stock), diluted in 48% ethanol-water, and tested in triplicate in serial 1:3 or 1:10 dilutions. When screening large numbers of compounds only one concentration of each compound is tested in single wells. Reference compounds are not included routinely, but for each experiment performed total and nonspecific binding is compared to data obtained during validation of the assay.
Binding is either terminated by rapid filtration onto
1) Whatman GF/C glass fibre filters using a Brandel Cell harvester, followed by 5 washes with 1 ml ice-cold buffer or onto 2) UniFilter GF/C glass fibre filter plates using a Tomtec cell harvester, followed by washing with approximately 5 ml ice-cold buffer.
The amount of radioactivity on the filters is determined by conventional liquid scintillation counting using a
1) Tri-Garb™ counter (PerkinElmer Life and Analytical Sciences) for separate large filters or
2) Topcount™ counter (PerkinElmer Life and Analytical Sciences) for 96-well filter plates.
Specific binding is total binding minus non-specific binding.
The IC50 value for a test compound is determined based on the equation: […]
where B is the binding in percentage of total specific binding; C is the concentration of test compound; and n is the Hill coefficient. For screening purposes n is set to 1. The IC50 value is calculated from the concentration response curves by the non-linear regression method using the curve-fitting program GraphPad Prism.
The Ki value for a test compound can be calculated from the IC50 value using the equation by Cheng and Prusoff: […]

| Ki | SMILES |
| --- | --- |
| 0.01 nM | Cc1nnn(-c2ccc(C(F)F)cn2)c1COc1ccc(-c2cnccn2)nn1 [Example 56, 3-({1-[5-(difluoromethyl)pyridin-2-yl]-4-methyl-1H-1,2,3-triazol-5-yl}methoxy)-6-(pyrazin-2-yl)pyridazine] |
| 0.014 nM | Cc1nnn(-c2ccc(C(F)F)cn2)c1COc1ccc(-n2cnc(C#N)c2)nn1 [Example 42, 1-[6-({1-[5-(difluoromethyl)pyridin-2-yl]-4-methyl-1H-1,2,3-triazol-5-yl}methoxy)pyridazin-3-yl]-1H-imidazole-4-carbonitrile] |
| 16 nM | Cc1nnn(-c2ccc(C(F)F)cn2)c1COc1ccc(-c2cc[nH]n2)nn1 [Example 5] |

Same assay, conditions: read-out: Assay A: GABAA α 5 β 3 γ 2s Ki

| SMILES | Ki |
| --- | --- |
| Cc1ncnn1-c1ccc(OCc2c(-c3ccc(C(F)F)cn3)nnn2C)nn1 [Example 48, 3-({4-[5-(difluoromethyl)pyridin-2-yl]-1-methyl-1H-1,2,3-triazol-5-yl}methoxy)-6-(5-methyl-1H-1,2,4-triazol-1-yl)pyridazine] | 82 nM |
| Cn1nnc(-c2ccc(C(F)F)cn2)c1COc1ccc(-c2cnccn2)nn1 [Example 39] | 39 nM |
| Cc1n[nH]c(C)c1-c1ccc(OCc2c(C)nnn2-c2ccc(C(F)F)cn2)nn1 [Example 15] | 40 nM |
| CNc1cccc(-c2ccc(OCc3c(C)nnn3-c3ccc(C(F)F)cn3)nn2)n1 [Example 14] | 33 nM |
| Cc1nnn(-c2ccc(C(F)F)cn2)c1COc1ccc(-c2cccc(C(N)=O)c2)nn1 [Example 6] | 15 nM |
| COc1ncc(-c2ccc(OCc3c(-c4ccc(C(F)F)cn4)nnn3C)nn2)cn1 [Example 31] | 23 nM |
| Cc1nnn(-c2ccc(C(F)F)cn2)c1COc1ccc(-c2ccc(C#N)nc2)nn1 [Example 8] | 18 nM |
| Cc1nnn(-c2ccc(C(F)F)cn2)c1COc1ccc(-c2ccc(S(C)(=O)=O)nc2)nn1 [Example 16] | 21 nM |
| Cc1nnn(-c2ccc(C(F)F)cn2)c1COc1ccc(-c2ccc(C#N)s2)nn1 [Example 12] | 19 nM |
| Cc1c(-c2ccc(OCc3c(-c4ccc(C(F)F)cn4)nnn3C)nn2)cc(C#N)n1C [Example 29] | 19 nM |
| Cn1nnc(-c2ccc(C(F)F)cn2)c1COc1ccc(-c2ccc(N)nc2)nn1 [Example 25] | 23 nM |
| Cn1nnc(-c2ccc(C(F)F)cn2)c1COc1ccc(-c2cccc(C(N)=O)c2)nn1 [Example 28] | 24 nM |
| Cn1nnc(-c2ccc(C(F)F)cn2)c1COc1ccc(-n2cccn2)nn1 [Example 50] | 22 nM |
| Cn1nnc(-c2ccc(C(F)F)cn2)c1COc1ccc(-c2cnc3nonc3c2)nn1 [Example 35] | 49 nM |
| Cn1nnc(-c2ccc(C(F)F)cn2)c1COc1ccc(-n2cc(C#N)cn2)nn1 [Example 49] | 25 nM |
| CCn1cc(-c2ccc(OCc3c(-c4ccc(C(F)F)cn4)nnn3C)nn2)cn1 [Example 22] | 19 nM |
| Cn1nnc(-c2ccc(C(F)F)cn2)c1COc1ccc(-c2cnn(C3CCC3)c2)nn1 [Example 32] | 18 nM |
| Cn1nnc(-c2ccc(C(F)F)cn2)c1COc1ccc(-c2cn[nH]c2)nn1 [Example 24] | 32 nM |
| Cc1nnn(-c2ccc(C(F)F)cn2)c1COc1ccc(-c2ccc(=O)n(C)c2)nn1 [Example 1, 5-[6-({1-[5-(difluoromethyl)pyridin-2-yl]-4-methyl-1H-1,2,3-triazol-5-yl}methoxy)pyridazin-3-yl]-1-methyl-1,2-dihydropyridin-2-one] | 10 nM |
| Cc1nnn(-c2ccc(C(F)F)cn2)c1COc1ccc(-c2c[nH]c(=O)c(F)c2)nn1 [Example 20] | 16 nM |
| Cn1nnc(-c2ccc(C(F)F)cn2)c1COc1ccc(-n2ccc(C#N)n2)nn1 [Example 53] | 19 nM |
| Cn1nnc(-c2ccc(C(F)F)cn2)c1COc1ccc(-c2ccc(S(C)(=O)=O)nc2)nn1 [Example 23] | 49 nM |
| Cc1c(-c2ccc(OCc3c(-c4ccc(C(F)F)cn4)nnn3C)nn2)cnn1C [Example 33] | 24 nM |
| Cn1nnc(-c2ccc(C(F)F)cn2)c1COc1ccc(-n2cnc(C#N)c2)nn1 [Example 52] | 35 nM |
| Cc1nn(C)cc1-c1ccc(OCc2c(-c3ccc(C(F)F)cn3)nnn2C)nn1 [Example 30] | 24 nM |

Second part, the compound after the results:

| Ki | SMILES |
| --- | --- |
| 13 nM | Cc1cc(-c2ccc(OCc3c(C)nnn3-c3ccc(C(F)F)cn3)nn2)cnn1 [Example 3] |
| 17 nM | Cc1nnn(-c2ccc(C(F)F)cn2)c1COc1ccc(-c2cn[nH]c2)nn1 [Example 4] |
| 10 nM | Cc1nnn(-c2ccc(C(F)F)cn2)c1COc1ccc(-c2cnccn2)nn1 [Example 56, 3-({1-[5-(difluoromethyl)pyridin-2-yl]-4-methyl-1H-1,2,3-triazol-5-yl}methoxy)-6-(pyrazin-2-yl)pyridazine] |
| 12 nM | Cc1nnn(-c2ccc(C(F)F)cn2)c1COc1ccc(-n2ncnc2C)nn1 [Example 38] |
| 14 nM | Cc1nnn(-c2ccc(C(F)F)cn2)c1COc1ccc(-n2cnc(C#N)c2)nn1 [Example 42, 1-[6-({1-[5-(difluoromethyl)pyridin-2-yl]-4-methyl-1H-1,2,3-triazol-5-yl}methoxy)pyridazin-3-yl]-1H-imidazole-4-carbonitrile] |
| 17 nM | Cc1nnn(-c2ccc(C(F)F)cn2)c1COc1ccc(-c2ccc(N)nc2)nn1 [Example 19] |
| 15 nM | Cc1nnn(-c2ccc(C(F)F)cn2)c1COc1ccc(-c2cnc(N)nc2)nn1 [Example 2] |
| 28 nM | Cc1nnn(-c2ccc(C(F)F)cn2)c1COc1ccc(-n2nccn2)nn1 [Example 43] |
| 16 nM | Cc1nnn(-c2ccc(C(F)F)cn2)c1COc1ccc(-c2cc[nH]n2)nn1 [Example 5] |
| 26 nM | Cc1nnn(-c2ccc(C(F)F)cn2)c1COc1ccc(-c2cnn(CC#N)c2)nn1 [Example 7] |
| 16 nM | Cc1nnn(-c2ccc(C(F)F)cn2)c1COc1ccc(-c2ccnnc2)nn1 [Example 17] |
| 14 nM | Cc1ncc(-c2ccc(OCc3c(C)nnn3-c3ccc(C(F)F)cn3)nn2)o1 [Example 18] |
| 11 nM | Cc1nnn(-c2ccc(C(F)F)cn2)c1COc1ccc(-n2cc(C#N)cn2)nn1 [Example 37] |
